Data as given in ChEMBL document CHEMBL3352801, “Synthesis and lipid-lowering evaluation of 3-methyl-1H-purine-2,6-dione derivatives as potent and orally available anti-obesity agents” (Eur J Med Chem, 2014).
≈ marks a conversion by molar mass, not a printed value.

Legend:
Mus musculus [1] = assay: Toxicity in diet-induced obese C57Bl/6 mouse assessed as change in AST level at 150 mg/kg/day, po for 4 weeks administered with high-fat diet (reference value: 125.00 +/- 35.00 U/L); assay type: organism-based; parameters: route oral; settings: in vivo, 672 h
Mus musculus [2] = assay: Toxicity in diet-induced obese C57Bl/6 mouse assessed as change in food intake at 150 mg/kg/day, po for 4 weeks administered with high-fat diet; assay type: organism-based; parameters: route oral; settings: in vivo, 672 h
Mus musculus [3] = assay: Toxicity in diet-induced obese C57Bl/6 mouse assessed as change in AST level at 150 mg/kg/day, po for 4 weeks administered with high-fat diet (reference value: 128.00 +/- 20.59 U/L); assay type: organism-based; parameters: route oral; settings: in vivo, 672 h
Mus musculus [4] = assay: Toxicity in diet-induced obese C57Bl/6 mouse assessed as change in ALT level at 150 mg/kg/day, po for 4 weeks administered with high-fat diet (reference value: 33.00 +/- 18.23 U/L); assay type: organism-based; parameters: route oral; settings: in vivo, 672 h
Mus musculus [5] = assay: Toxicity in diet-induced obese C57Bl/6 mouse assessed as change in ALT level at 150 mg/kg/day, po for 4 weeks administered with high-fat diet (reference value: 29.6 +/- 8.29 U/L); assay type: organism-based; parameters: route oral; settings: in vivo, 672 h
Mus musculus [6] = assay: Antiobesity activity in diet-induced obese C57Bl/6 mouse assessed as loss of epididymal fat mass at 50 mg/kg/day, po for 4 weeks administered with high-fat diet; assay type: functional
Mus musculus [7] = assay: Antiobesity activity in diet-induced obese C57Bl/6 mouse assessed as change in insulin level at 50 mg/kg/day, po for 4 weeks administered with high-fat diet (reference value: 11.85 +/- 2.6 mU); assay type: functional
Rattus norvegicus [8] = assay: Acute toxicity in Sprague-Dawley rat assessed as clinical signs at 2.5 g/kg, po as single dose measured after 7 days; assay type: organism-based; settings: in vivo, 2500 mg/kg, 168 h
Mus musculus [9] = assay: Toxicity in diet-induced obese C57Bl/6 mouse assessed as change in AST level at 50 mg/kg/day, po for 4 weeks administered with high-fat diet (reference value: 125.00 +/- 35.00 U/L); assay type: organism-based; parameters: route oral; settings: in vivo, 672 h
[10] = Oral bioavailability in Sprague-Dawley rat at 20 mg/kg; assay type: ADME, organism-based; settings: in vivo
Mus musculus [11] = assay: Toxicity in diet-induced obese C57Bl/6 mouse assessed as change in ALT level at 50 mg/kg/day, po for 4 weeks administered with high-fat diet (reference value: 33.00 +/- 18.23 U/L); assay type: organism-based; parameters: route oral; settings: in vivo, 672 h
[12] = AUC (0 to t) in Sprague-Dawley rat at 5 mg/kg, iv; assay type: ADME, organism-based; parameters: dose 5 mg/kg, route intravenous; settings: plasma
Mus musculus [13] = assay: Antiobesity activity in diet-induced obese C57Bl/6 mouse assessed as loss of liver weight at 50 mg/kg/day, po for 4 weeks administered with high-fat diet; assay type: functional
Mus musculus [14] = assay: Increase in glucose tolerance in diet-induced obese C57Bl/6 mouse assessed as rate of reducing plasma glucose at 50 mg/kg/day, po for 4 weeks by oral glucose tolerance test; assay type: functional
Mus musculus [15] = assay: Antiobesity activity in diet-induced obese C57Bl/6 mouse assessed as reduction in HOMA-IR value at 50 mg/kg/day, po for 4 weeks administered with high-fat diet (reference value: 3.06 +/- 0.85 no_unit); assay type: functional
Mus musculus [16] = assay: Antiobesity activity in diet-induced obese C57Bl/6 mouse assessed as reduction in body weight at 50 mg/kg/day, po for 4 weeks administered with high-fat diet; assay type: functional; parameters: scale not given: the % may be the effect or the level left
[17] = Volume of distribution in Sprague-Dawley rat at 5 mg/kg, iv; assay type: ADME, organism-based; parameters: dose 5 mg/kg, route intravenous; settings: in vivo
Mus musculus [18] = assay: Antiobesity activity in diet-induced obese C57Bl/6 mouse assessed as reduction in FFA level at 50 mg/kg/day, po for 4 weeks administered with high-fat diet (reference value: 19.55 +/- 1.57 ng/L); assay type: functional
[19] = Tmax in Sprague-Dawley rat at 5 mg/kg, iv; assay type: ADME, organism-based; parameters: dose 5 mg/kg, route intravenous; settings: in vivo
[20] = Half life in Sprague-Dawley rat at 5 mg/kg, iv; assay type: ADME, organism-based; parameters: dose 5 mg/kg, route intravenous; settings: in vivo
[21] = Tmax in Sprague-Dawley rat at 20 mg/kg, po; assay type: ADME, organism-based; parameters: dose 20 mg/kg, route oral; settings: in vivo
Rattus norvegicus [22] = assay: Acute toxicity in Sprague-Dawley rat assessed as mortality at 2.5 g/kg, po as single dose measured after 7 days; assay type: organism-based; settings: in vivo, 2500 mg/kg, 168 h
Mus musculus [23] = assay: Antiobesity activity in diet-induced obese C57Bl/6 mouse assessed as reduction in hepatic triglyceride level at 50 mg/kg/day, po for 4 weeks administered with high-fat diet by Oil Red O staining-based histological method; assay type: functional; parameters: scale not given: the % may be the effect or the level left
Mus musculus [24] = assay: Antiobesity activity in diet-induced obese C57Bl/6 mouse assessed as reduction in LDL level at 50 mg/kg/day, po for 4 weeks administered with high-fat diet (reference value: 0.14 +/- 0.07 mM); assay type: functional
Mus musculus [25] = assay: Antiobesity activity in diet-induced obese C57Bl/6 mouse assessed as increase in HDL level at 50 mg/kg/day, po for 4 weeks administered with high-fat diet (reference value: 0.60 +/- 0.17 mM); assay type: functional
[26] = Solubility of the compound at room temperature; assay type: physicochemical
Rattus norvegicus [27] = assay: Acute toxicity in Sprague-Dawley rat assessed as change in body weight at 2.5 g/kg, po as single dose measured after 7 days; assay type: organism-based; settings: in vivo, 2500 mg/kg, 168 h
Mus musculus [28] = assay: Antiobesity activity in diet-induced obese C57Bl/6 mouse assessed as reduction in fasting blood glucose at 50 mg/kg/day, po for 4 weeks administered with high-fat diet (reference value: 5.0 +/- 1.30 mM); assay type: functional
Mus musculus [29] = assay: Toxicity in diet-induced obese C57Bl/6 mouse assessed as change in food intake at 50 mg/kg/day, po for 4 weeks administered with high-fat diet; assay type: organism-based; parameters: route oral; settings: in vivo, 672 h
[30] = AUC (0 to t) in Sprague-Dawley rat at 20 mg/kg, po; assay type: ADME, organism-based; parameters: dose 20 mg/kg, route oral; settings: plasma
[31] = Half life in Sprague-Dawley rat at 20 mg/kg, po; assay type: ADME, organism-based; parameters: dose 20 mg/kg, route oral; settings: in vivo
Rattus norvegicus [32] = assay: Volume of distribution in Sprague-Dawley rat at 20 mg/kg, po; assay type: ADME, organism-based; parameters: dose 20 mg/kg, route oral; settings: in vivo
[33] = Total clearance in Sprague-Dawley rat at 5 mg/kg, iv; assay type: ADME, organism-based; parameters: dose 5 mg/kg, route intravenous; settings: in vivo
3T3-L1 = assay: Inhibition of triglyceride accumulation in mouse 3T3L1 cells at 10 uM after 24 hrs; assay type: functional; settings: 3T3-L1, 24 h
[34] = Cmax in Sprague-Dawley rat at 20 mg/kg, po; assay type: ADME, organism-based; parameters: dose 20 mg/kg, route oral; settings: in vivo
[35] = Cmax in Sprague-Dawley rat at 5 mg/kg, iv; assay type: ADME, organism-based; parameters: dose 5 mg/kg, route intravenous; settings: in vivo
[36] = Total clearance in Sprague-Dawley rat at 20 mg/kg, po; assay type: ADME, organism-based; parameters: dose 20 mg/kg, route oral; settings: in vivo
Mus musculus [37] = assay: Antiobesity activity in diet-induced obese C57Bl/6 mouse assessed as reduction in triglyceride level at 50 mg/kg/day, po for 4 weeks administered with high-fat diet (reference value: 0.93 +/- 0.09 mM); assay type: functional
Mus musculus [38] = assay: Increase in glucose tolerance in diet-induced obese C57Bl/6 mouse assessed as time required for reducing plasma glucose to initial state at 50 mg/kg/day, po for 4 weeks by oral glucose tolerance test; assay type: functional

With `CN(C)C(=N)N=C(N)N` [METFORMIN] the Activity (Mus musculus [1]) was 110 U/L, the Activity (Mus musculus [2]) was “Non-toxic” and the Activity (Mus musculus [3]) was 172 U/L. For the same compound, the Activity (Mus musculus [4]) was 21.67 U/L and the Activity (Mus musculus [5]) was 46.29 U/L.

With `CCn1c(-c2ccc(OCCN(C)c3ccccn3)cc2)nc2c1c(=O)n(Cc1ccccc1C#N)c(=O)n2C` the Activity (Mus musculus [6]) was 21.65%, the Activity (Mus musculus [7]) was 13.35 mU and the Activity (Rattus norvegicus [8]) was “Non-toxic”. It also gave an Activity (Mus musculus [9]) of 120 U/L, a bioavailability [10] of 28% and an Activity (Mus musculus [11]) of 20 U/L. It also gave an AUC(0-t) [12] of 404 ng·h/mL, an Activity (Mus musculus [13]) of 16.8% and an Activity (Mus musculus [14]) of over 2 %/min. For the same compound, the Activity (Mus musculus [15]) was 3.06, the Activity (Mus musculus [16]) was 15.96% and the Vd [17] was 142 L/kg. The Activity (Mus musculus [18]) was 22.67 ng/L, the Tmax [19] was 4.98 min and the half-life [20] was 8.83 h. The Tmax [21] was 2.27 h, the Activity (Rattus norvegicus [22]) was “Non-toxic” and the Activity (Mus musculus [23]) was 7.17%. The Activity (Mus musculus [24]) was 0.11 mM, the Activity (Mus musculus [25]) was 1.96 mM and the solubility [26] was 1000 µg/mL (≈ 1870 µM). For the same compound, the Activity (Rattus norvegicus [27]) was “Non-toxic”, the Activity (Mus musculus [28]) was 5.15 mM and the Activity (Mus musculus [29]) was “Non-toxic”. It also gave an AUC(0-t) [30] of 453 ng·h/mL, a half-life [31] of 6.3 h and a Vd (Rattus norvegicus [32]) of 416.501 L/kg. The clearance [33] was 189 mL/min/kg, the inhibition at 10 µM (3T3-L1) was 64.5% and the Cmax [34] was 54.4 ng/mL. It also gave a Cmax [35] of 342 ng/mL, a CL/F [36] of 1030 mL/min/kg and an Activity (Mus musculus [37]) of 1.02 mM. For the same compound, the Time (Mus musculus [38]) was over 40 min.
